Laboratory results taken from patent US20250250267A1, “NITROGEN-CONTAINING BRIDGED HETEROCYCLIC COMPOUND, PREPARATION METHOD THEREFOR, AND MEDICAL USE THEREOF” (Jiangsu Hengrui Pharmaceuticals Co., Ltd., priority 2020, published 2025).

Key:
[1] = target: human complement factor B (Homo sapiens (Human), UniProt P00751); experiment: biochemical
Method: Assays for the C3a des Arg epitope generated after C3 is cleaved can be used to evaluate the efficiency of C3 being hydrolyzed, i.e., the C3bBb enzyme activity, and thereby to evaluate the effects of the compounds on the C3bBb enzyme.
A 100 mM Na2CO3 solution and a 100 mM NaHCO3 solution were prepared and mixed in a ratio of Na2CO3 to NaHCO3 of 3:7 (v/v) to adjust the pH to 9.5. The mixture was stored at room temperature for later use. […] The compounds and 100% DMSO were then 20-fold diluted in C3 reaction buffer (PBS pH 7.4, 1 mM MgCl2, 0.05% CHAPS).
Cleavage reactions of the C3 protein: In a 96-well low-volume white plate, 10-μL reaction systems were prepared by adding CVF:Bb (to a final concentration of 2 nM) and 1 μL of the above test compounds and DMSO diluted in C3 reaction buffer to C3 reaction buffer (PBS pH 7.4, 1 mM MgCl2, 0.05% CHAPS). The plate was incubated at room temperature for 1 h. […] Human complement factor C3 was added to the reaction systems to a final concentration of 500 nM. After they were well mixed, the mixtures were reacted in a constant-temperature incubator at 37° C. for 2 h. Among the reaction mixtures, the reaction well that contained only 500 nM human complement factor C3 was used as a negative control. To a 96-well adsorption black plate, 97 μL of the carbonic acid buffer (pH 9.5) was added, and the C3 protein cleavage reaction mixtures were added at 3 μL/well. After they were well mixed, the plate was sealed and incubated at 4° C. overnight.
C3a des Arg assays: The plate was washed 3 times with 300 μL/well TBST (0.05% tween 20) solution, the StartingBlock™ T20 (TBS) blocking buffer was added at 300 μL/well, and the plate was incubated at 37° C. for 5 min. […] The plate was washed 3 times with 300 μL/well PBST solution, the goat anti-mouse IgG H&L (HRP) antibody was 1:5000 diluted in PBST solution and added at 100 μL/well, and the plate was incubated at 37° C. for 30 min. […]
The inhibition rate was calculated using the following formula:

[2] = test system: human complement alternative pathway; experiment: Inhibition of human complement alternative pathway (zymosan-activated human serum with EGTA, C5b-9 formation); format: biochemical; details: zymosan A, C5b-9 readout
Source text: The alternative pathway can be activated by zymosan. The extent of activation of the alternative pathway can be evaluated by assaying the formation of the C5b-9 complex. […] Since the activation of the two pathways requires both magnesium and calcium ions, and the alternative pathway requires magnesium ions only, after chelation with the calcium ion chelator EGTA, the alternative pathway is not inhibited, while the classical pathway and the lectin pathway are. After chelation with EDTA, the three pathways are all inhibited. Therefore, the inhibitory effects of the small-molecule compounds on the alternative pathway can be evaluated by activating the complement alternative pathway in human serum with zymosan in the presence of the EGTA chelator and assaying the formation of the C5b-9 complex.
Zymosan A powder was resuspended at 10 mg/mL in TBS solution and activated by heating at 100° C. for 2 h. After the activation, the suspension was centrifuged at 4000 rpm for 30 min, and the supernatant was discarded. The residue was resuspended in TBS to form a 50 mg/mL suspension. The suspension was aliquoted and stored in a −20° C. freezer. The day before the experiment, the activated zymosan A solution was diluted to 1 mg/mL with the carbonic acid buffer (pH 9.5) and added to a 96-well adsorption black plate at 100 μL/well, and the plate was coated at 4° C. overnight.
A 100 mM Na2CO3 solution and a 100 mM NaHCO3 solution were prepared and mixed in a ratio of Na2CO3 to NaHCO3 of 3:7 (v/v) to adjust the pH to 9.5. The mixture was stored at room temperature for later use.
Activation reactions of the complement alternative pathway: Human serum was 5-fold diluted with PBS solution to form a 20% serum solution, and the solution was placed on ice for later use. 20 mM test compounds dissolved in 100% DMSO were serially diluted with 100% DMSO to 2000, 500, 125, 31.25, 7.8125, 0.488281, 0.12207, 0.030518, and 0.007629 μM, with the blank well containing 100% DMSO. The compounds and 100% DMSO were then 20-fold diluted in 2× EGTA reaction buffer (4.2 mM HEPES, 0.15 mM CaCl2), 140 mM NaCl, 4.5 mM MgCl2, 0.1% gelatin, 20 mM EGTA). Meanwhile, 100% DMSO was 20-fold diluted in 2× EDTA reaction buffer (4.2 mM HEPES, 0.15 mM CaCl2), 140 mM NaCl, 4.5 mM MgCl2, 0.1% gelatin, 20 mM EDTA) as a negative control well. 40-μL serum-EGTA reaction mixtures were prepared by mixing well 20 μL of 20% human serum, 4 μL of the above test compounds or DMSO diluted in 2× EGTA reaction buffer, and 16 μL of 2× EGTA reaction buffer. Serum-EGTA-DMSO was used as a blank control. The mixtures were incubated at room temperature for 30 min. In the negative control well, a 40-μL serum-EDTA reaction mixture was prepared by mixing well 20 μL of 20% human serum, 4 μL of the above DMSO diluted in 2× EDTA reaction buffer, and 16 μL of 2× EDTA reaction buffer. The mixture was incubated at room temperature for 30 min. The 96-well adsorption black plate coated with zymosan A one day ahead of time was washed 3 times with 300 μL/well TBST (0.05% tween 20) solution, and the serum-EGTA-test compound reaction mixtures, the blank control well, and the serum-EDTA-DMSO reaction mixture (negative control well) were added at 25 L/well. The mixtures were reacted at 37° C. for 40 min. The plate was washed 3 times with 300 μL/well TBST solution, the StartingBlock™ T20 (TBS) blocking buffer was added at 300 μL/well, and the plate was incubated at 37° C. for 15 min.

IgAN patients = details: 4 IgAN patients, end of phase 2; cited from earlier work
[3] = test system: passive heymann nephritis rats; experiment: Therapeutic effects on Heymann nephritis in rats induced by sheep anti-rat Fx1A serum; format: in vivo; details: for decrease in rat serum iC3b+C3d compared to the model group: serum day 15; for decrease in the ratio of total protein/creatinine in rat urine compared to the model group: day 14
Source text: Experimental animals: laboratory male SD rats, provided by Vital River Laboratory Animal Technology Co., Ltd. (production license number: SCXK (Zhejiang) 2019-0001; animal certificate number: 20210401Abzz0619000322; weighing 180-200 g at purchase).
After the acclimatization, the male SD rats were grouped as follows according to total protein in urine and body weight in the 2 days before the experiment:
On day 0 of the experiment, the model group and administration groups were given a single tail vein injection of Fx1A serum (5 mL/kg), and the normal group was given a tail vein injection of normal goat serum. […] The experiment ended on day 15. Two-hour urine was collected on days 2, 4, 6, 8, 11, and 14 and assayed for creatinine and total protein. Serum was collected on day 15 for complement activation fragment (C3d+iC3b) analysis.
The experimental data are expressed as mean±standard error (SEM). Statistical comparison was performed using Excel software t-test. The data of the model group and the data of the blank control group were analyzed and compared to judge whether a significant mathematical statistical significance exists. *P<0.05 indicates a significant difference between the model group and the blank control group, **P<0.01 indicates a highly significant difference between the model group and the blank control group, and ***P<0.001 indicates a very highly significant difference between the model group and the blank control group. #P<0.05 indicates a significant difference between an administration group and the model group, ##P<0.01 indicates a highly significant difference between an administration group and the model group, and ###P<0.001 indicates a very highly significant difference between an administration group and the model group.

[4] = test system: patients with PNH and active hemolysis; details: cited from earlier work

## CCO[C@H]1C[C@H]2CCC(c3ccc(C(=O)O)cc3)(C1)N2Cc1c(C)cc(C)c2[nH]ccc12 (stereo in doubt) [Example 3, 4-((1S,3S,5R)-8-((5,7-Dimethyl-1H-indol-4-yl)methyl)-3-ethoxy-8-azabicyclo[3.2.1]octan-1-yl)benzoic acid]
[1]
  IC50: 4.9 nM
[2]
  IC50: 49.8 nM

## CCO[C@H]1C[C@H]2CCC(c3ccc(C(=O)O[C@@H]4O[C@H](C(=O)O)[C@@H](O)[C@H](O)[C@H]4O)cc3)(C1)N2Cc1c(OC)cc(C)c2[nH]ccc12 (stereo in doubt) [Example 5, (2S,3S,4S,5R,6S)-6-((4-((1S,3S,5R)-3-Ethoxy-8-((5-methoxy-7-methyl-1H-indol-4-yl)methyl)-8-azabicyclo[3.2.1]octan-1-yl)benzoyl)oxy)-3,4,5-trihydroxytetrahydro-2H-pyran-2-carboxylic acid]
[1]
  IC50: 30 nM
[2]
  IC50: 74.6 nM

## CCO[C@H]1C[C@H]2CC[C@](c3ccc(C(=O)O)cc3)(C1)N2Cc1c(OC)cc(C)c2[nH]ccc12 (relative stereo) [Example 1, (±)-rel-4-((1S,3S,5R)-3-Ethoxy-8-((5-methoxy-7-methyl-1H-indol-4-yl)methyl)-8-azabicyclo[3.2.1]octan-1-yl)benzoic acid]
[2]
  IC50: 43.2 nM

## OMS721: humanized monoclonal antibody targeting the MASP-2 protein developed by Omeros Inc.
IgAN patients
  proteinuria index: significantly improved

## CCO[C@H]1C[C@H]2CCC(c3ccc(C(=O)O)cc3)(C1)N2Cc1c(OC)cc(C)c2[nH]ccc12 (stereo in doubt) [Example 1-1, 4-((1S,3S,5R)-3-Ethoxy-8-((5-methoxy-7-methyl-1H-indol-4-yl)methyl)-8-azabicyclo[3.2.1]octan-1-yl)benzoic acid]
[3]; 10 mg/kg orally twice daily
  decrease in rat serum iC3b+C3d compared to the model group: 76.2%
[3]; 30 mg/kg orally twice daily
  decrease in rat serum iC3b+C3d compared to the model group: 105.5%
[3]; 90 mg/kg orally twice daily
  decrease in rat serum iC3b+C3d compared to the model group: 108.7%
[2]
  IC50: 27 nM

## CCO[C@H]1C[C@H]2CCC(c3ccc(C(=O)O)cc3)(C1)N2Cc1c(C2CC2)cc(C)c2[nH]ccc12 (stereo in doubt) [Example 4, 4-((1S,3S,5R)-8-((5-Cyclopropyl-7-methyl-1H-indol-4-yl)methyl)-3-ethoxy-8-azabicyclo[3.2.1]octan-1-yl)benzoic acid]
[1]
  IC50: 1.6 nM
[2]
  IC50: 50.6 nM

## CCO[C@H]1CCN(Cc2c(OC)cc(C)c3[nH]ccc23)[C@H](c2ccc(C(=O)O)cc2)C1 [LNP023]
[4]; at 13 weeks, all the patients, LNP023 twice daily with eculizumab
  decrease in LDH: 34-81%
[4]; at 13 weeks
  males with Hb>120 g/L: 71%
[4]; twice daily for at least 13 weeks with eculizumab
  tolerability: well tolerated
[3]; 20 mg/kg orally twice daily
  day from which statistical decreases in urine total protein/creatinine ratio began: 11 days
  decrease in the ratio of total protein/creatinine in rat urine compared to the model group: 56.4%
  decrease in rat serum iC3b+C3d compared to the model group: 62.2%
[3]; 60 mg/kg orally twice daily
  day from which statistical decreases in urine total protein/creatinine ratio began: 11 days
  decrease in the ratio of total protein/creatinine in rat urine compared to the model group: 47.1%
  decrease in rat serum iC3b+C3d compared to the model group: 68.8%
[3]; day 14, across dose groups
  dose dependence of the decrease in urine total protein/creatinine ratio: not significantly dose-dependent
